Patent US20150290106A1, “Dentotropic Conjugates and Compositions and Methods of Use Thereof” (BOARD OF REGENTS OF THE UNIVERSITY OF NEBRASKA, priority 2012, published 2015)

Legend:
[1] = Model tooth surface binding experiment (menthol-PPi/hydroxyapatite binding by 1H NMR); conditions: for speed of binding to HA (time to maximum binding): HA powder, vortex agitation, diphosphate
Experimental: Menthol-PPi (80 mg) was dissolved in deuterium oxide (D2O, 16.1159 g). Two drops (34.7 mg) of acetone was added as an internal reference when using NMR spectroscopy. Four time intervals were chosen for this study, each with three samples for each interval. Into each of twelve microcentrifuge tubes was added 10 mg hydroxyapatite (HA). One by one, […] was added to the tubes and then agitated with a vortex mixer at high speed for the allotted amount of time. Each tube was then centrifuged at 12.000 rpm for one minute. The liquid was then transferred to NMR tubes for analysis. Three blank NMR samples without the influence of HA were prepared for reference, as well as three control samples without pyrophosphate (i.e., menthol only) with HA. The spectra of the blank samples were compared to those of the experimental samples by observing the relative integration areas of the acetone peak vs. the signal from one methyl group of menthol's isopropyl component. No binding is observed without pyrophosphate.
An additional experiment was performed, changing the hydroxyapatite amount while keeping the vortex time fixed at 2 minutes for each sample, simulating the average time a person spends brushing his or her teeth. Menthol-PPi (80 mg) was dissolved in 16.14 g D2O. Two drops (25.7 mg) of acetone were again added as internal reference. One gram of the menthol-PPi solution was added to the HA test tubes just prior to vortex agitation, as before. Samples were again analyzed via ^1H NMR.

[2] = Menthol release in filtered saliva diluted 1:1 with PBS over 24 hours (GC/MS, FIG. 2); type: in vitro ADME, human; conditions: saliva/PBS 1:1, 37° C.
Experimental: FIG. 2 provides a graph of the menthol release after chloroform extraction over the course of 24 hours.
Into several 15-mL glass vials were placed 10 mg of menthol-PPi and 2 mL of fresh saliva. The saliva had been centrifuged to remove any free particles, then filtered through a 0.45 μm syringe filter to rid bacteria. It was then diluted 1:1 by volume with phosphate-buffered saline (PBS). Each sample was placed in a water bath incubator at 37° C., shaking at 40 rpm, for a specific amount of time over the course of 24 hours. One sample was withdrawn at each time interval, and vortexed for 10 seconds after direct addition of 2 mL of chloroform. The mixture was transferred to microcentrifuge tubes, after which each tube was centrifuged at 12,000 rpm for one minute to separate the chloroform phase from the water (saliva/PBS) phase. […] After GC/MS analysis of each sample, the total amount of menthol released was calculated using the integration areas of menthol and neomenthol, simplified into a ratio. […] The absolute amount, in μg, of menthol in each GC/MS vial was determined by multiplying the concentration by 1 mL, the total amount of solution in the vial. Then, the release amount was calculated by taking the previous value and multiplying it by a factor of 4, since the original sample was 2 mL. […]

Row | HA-Bound Conjugate (% ± σ %) ([1]; 10 mg hydroxyapatite, vortex time 1 min) [%] | HA-Bound Conjugate (% ± σ %) ([1]; 10 mg hydroxyapatite, vortex time 2 min) [%] | HA-Bound Conjugate (% ± σ %) ([1]; 10 mg hydroxyapatite, vortex time 5 min) [%] | HA-Bound Conjugate (% ± σ %) ([1]; 10 mg hydroxyapatite, vortex time 10 min) [%] | HA-Bound Conjugate (% ± σ %) ([1]; 20 mg hydroxyapatite, time fixed at two minutes) [%] | HA-Bound Conjugate (% ± σ %) ([1]; 30 mg hydroxyapatite, time fixed at two minutes) [%] | HA-Bound Conjugate (% ± σ %) ([1]; 40 mg hydroxyapatite, time fixed at two minutes) [%] | speed of binding to HA (time to maximum binding) [1] | speed of binding to HA (time to maximum binding) ([1]; listed as menthol-PPi) | release profile of menthol from the pyrophosphate [2] | binding to HA ([1]; control samples without pyrophosphate (menthol only) with HA) | Structure (SMILES)
1 | 27.56 ± 4.44 | 25.69 ± 0.77 | 28.30 ± 2.70 | 28.25 ± 3.04 | 33.88 ± 6.32 | 45.04 ± 1.34 | 54.51 ± 3.65 | within one minute | very quickly | linear in nature |  | CC(C)[C@@H]1CC[C@@H](C)C[C@H]1OC(=O)COP(=O)([O-])OP(=O)([O-])[O-].[Na+].[Na+].[Na+] [Menthol-PPi, sodium 2-((1R,2S,5R)-2-isopropyl-5-methylcyclohexyloxy)-2-oxoethyl diphosphate]
2 |  |  |  |  |  |  |  |  |  |  | No binding | CC1CCC(C(C)C)C(O)C1 (centres unmarked) [menthol, reference compound]
